“Also recorded” adds a separate entry of the source. Where a SMILES comes first, the peptide text is derived from it. The star is where a group is joined. Cbz = O=C(OCc1ccccc1)*
What was measured:
[1] = system: zona-enclosed oocytes / boar spermatozoa; test: Porcine in vitro fertilization of zona-enclosed (zona-intact) oocytes with inhibitor or antibody in the fertilization medium; assay type: cell-based; conditions: for Monospermic (number of oocytes) / Not fertilized (%) / Not fertilized (number of oocytes) / Polyspermic (number of oocytes) / Monospermic (%) / Polyspermic (%): 10 uM in culture medium at the time of insemination, 20 h p.i.; for penetration of ZP: 100 uM concentration; for fertilization of zona-enclosed (zona-intact) oocytes: agent in fertilization medium during porcine IVF
[2] = system: zona-free oocytes / boar spermatozoa; test: Porcine in vitro fertilization of zona-free oocytes; assay type: cell-based
Method: IVF was performed using zona-enclosed and zona-free (ZF or ZP−) oocytes in the presence or absence of MG132 and antibody MECL-1. Removal of the zona pellucida was accomplished by a brief (30 sec) exposure of oocytes to 0.5% pronase (Sigma, St. Louis, Mo.). Oocytes were washed extensively and ZF oocytes were allowed to recover from enzymatic treatment for 1 h prior to insemination. For IVF, ZF oocytes were co-incubated with 1×10^5 sperm/ml while zona-enclosed/zona-intact (ZI or ZP+) oocytes were treated as described above. Oocytes were fixed 12 h post insemination (p.i.) in 25% acetic acid/ethanol and stained with 1% orcein to determine the incidence of fertilization. In some experiments, oocytes were evaluated by immunofluorescence microscopy, detecting the presence of pronuclei and sperm tails in the zygotic cytoplasm.
To ascertain that the fertilizing capability of boar spermatozoa was not diminished by some non-specific effect of proteasomal inhibitors on the sperm motility or sperm ability to fuse with the oocyte plasma membrane, porcine oocytes were stripped of ZP and fertilized with acrosome-intact spermatozoa in the presence or absence of MG132 (FIG. 5 A-H). […] MG132 had no effect on the fertilization of zona-intact oocytes when either oocytes or spermatozoa were pre-incubated with it and used for insemination after extensive washing.

rat ova = conditions: Josefsberg et al., 2000; cited from earlier work
[3] = system: bovine ova / bull spermatozoa; test: Bovine in vitro fertilization; assay type: cell-based; conditions: 10 μM MG132
[4] = system: boar spermatozoa bound to the zona pellucida; test: Sperm-zona binding and sperm acrosomal status (DAPI, c-Yes immunofluorescence); assay type: cell-based, porcine
Method: To evaluate sperm-zona binding and sperm acrosomal status, zona-enclosed oocytes were fixed and the tyrosine kinase c-Yes, known to be present in the subacrosomal and outer acrosomal layer of perinuclear theca in spermatozoa with an intact acrosome (Leclerc and Goupil, 2002) was evaluated by immunofluorescence. The number of spermatozoa bound to the zona pellucida was determined after staining with DAPI. Five eggs per group were counterstained with an antibody against the acrosomal tyrosine kinase c-Yes (see Immunofluorescence) and DAPI and photographed at 60× magnification. ZP-bound acrosome-reacted and acrosome intact spermatozoa were counted and the values were expressed as a percent (%) of acrosome intact sperm/egg. Treatment results were compared by χ2 test and by general linear model procedures of SAS 8.2.
It was first observed that proteasomal inhibitors lactacystin and MG132 prevent fertilization in the course of studies aimed at confirming the proteasomal route of degradation of the paternal, sperm mitochondria inside the porcine zygote (Sutovsky et al., 2003). This study was followed up on by experiments designed to determine at which step of fertilization the inhibitors exert the block. […] The experiment was repeated four times with consistent results. […] To rule out that MG132 affects sperm viability, sperm-zona binding or acrosomal exocytosis, oocytes fertilized in the presence of 10 μM MG132 were fixed with their zona pellucida intact at 20 h p.i. Sperm heads bound to ZP were detected with DAPI and intact acrosomes were detected by antibodies against tyrosine kinase c-Yes, known to reside in the sub-acrosomal and outer acrosomal layer of perinuclear theca of acrosome-intact spermatozoa (FIG. 1 A-D). Since the spermatozoa in this experiment were pre-labeled with MitoTracker CMTM Ros, the sperm mitochondrial sheaths were rendered detectable inside the fertilized oocytes. […] However, there was no significant difference in the number of sperm bound per egg (99.3 with MG132 vs. 93.3 in control) or in the percentage of acrosome-intact, zona-bound sperm (2.01% with MG132 vs. 2.14% in control).

pronuclei of bovine ova = test: Pronuclear development in bovine fertilized ova (immunofluorescence); assay type: cell-based
Method: The ubiquitin-proteasome pathway was until recently ascribed solely to cytoplasmic compartment. The presence and proteolytic activity of proteasomes in the nuclear compartment of […] was analyzed. Specific immune sera were used for the immunolocalization of proteasomal subunits LMP2, α/β and MECL1 in bovine pronuclear zygotes at various stages of pronuclear development. […] Proteasomal subunits started to infiltrate both male and female pronuclei at the initial stage of sperm nuclear decondensation. Both the male and the female pronuclei become occupied by proteasomes prior to reaching full size and apposition. High density of proteasomes was observed inside the apposed, full-sized pronuclei in both monospermic and polyspermic ova, and in cases of asynchronous pronuclear development. […] The sperm tail was visualized by the preincubation of spermatozoa prior to fertilization with a vital mitochondrial dye MitoTracker Green FM (green).
Such fertilization in presence of low concentration MG132 allowed the observation of the effects of proteasomal interference on pronuclear development. […] DNA was stained with blue fluorecent DAPI and sperm tails inside the fertilized ova were identified by the presence of green fluorescence, which accumulated in sperm mitochondrial sheath during sperm preincubation with MitoTracker GreenFM. […]

[5] = system: ubiquitin-immuno-reactive ZP proteins; test: Western blotting / Coomassie staining of ubiquitin-immuno-reactive ZP proteins after IVF; assay type: cell-based, porcine; conditions: MG132 in fertilization medium; 6 h p.i.
Method: SDS-PAGE and Western blotting were carried out as generally described in Sambrook et al. (2001). Oocytes and zygotes were removed from culture at given time points, washed repeatedly in a protein-free TALP HEPES and 350 zygotes per group were boiled for 5 min in […] of loading buffer containing Tris (50 mM), β-mercaptoethanol (5%), glycerol (10%), SDS (2%) and PMSF (100 mM). Boar sperm proteins were extracted by grinding in extraction buffer (50 mM Tris, 20 mM imidazole, 1 mM EDTA, 5 mM benzamidine HCl, 5 μg/ml leupeptine, 1 μg/ml pepstatin A, 100 mM PMSF and 0.1% SDS), centrifuged at 17000×g for 30 min. β-mercaptoethanol, glycerol, SDS were added to the supernatants, achieving the final concentrations as that of the loading buffer. Human spermatozoa were boiled with loading buffer, followed by centrifugation at 25000×g for 30 min to remove the DNA pellet. […] After incubating overnight with the primary anti-ubiquitin antibodies and then with the appropriate biotin-conjugated secondary antibodies, the signals were detected with alkaline phosphatase reaction, using Vectastain ABC-AmP kit (Vector Lab Inc., Burlingame, Calif.).
Next, it was determined whether some of the ubiquitin-immuno-reactive ZP substrates undergo degradation after sperm binding to ZP, and whether such degradation can be prevented by proteasomal inhibitors. […]

[6] = system: bovine ova / bull spermatozoa; test: Bovine in vitro fertilization; assay type: cell-based
Method: The effect of proteasomal interference on the ability of bull spermatozoa to fertilize bovine ova was analyzed in vitro. Specific, fully reversible proteasomal inhibitor MG132 (100 μM) was added to fertilization medium at the time of insemination. This allowed fertilization to occur only in 3 out of […] ova examined at 20 h post insemination (2.8% rate of fertilization; Table 2). […] Proteasomes in pronuclei were detected with an antibody against α-type and β-type proteasomal subunits. DNA was visualized with DAPI (blue).
However, several groups of ova were preincubated with 100 μM MG132 for 2 hours prior to fertilization to rule out that MG132 could block or hinder fertilization by a direct effect on zona pellucida oolemma or ooplasm, as opposed to an inhibitory effect on sperm acrosome-borne proteasomes (Sutovsky et al., 2003a, b).

[7] = 10 μM MG132, 20 hours post insemination
[8] = 100 μM at fertilization, 20 h post insemination
[9] = 100 μM at fertilization, 20 h post insemination, listed as MG 132
[10] = 100 μM ovum preincubation 2 h, IVF in absence of MG132

CC(C)C[C@@H](C=O)NC(=O)[C@H](CC(C)C)NC(=O)[C@H](CC(C)C)NC(=O)OCc1ccccc1 [MG132, Z-Leu-Leu-Leu-CHO] (Cbz-Leu-Leu-Leu-aldehyde)
fertilization ([1]; 10 μM MG132, fixed at 20 h p.i.): 0%
Monospermic (number of oocytes) [1]: 0
Not fertilized (%) [1]: (100%)
Not fertilized (number of oocytes) [1]: 19
Polyspermic (number of oocytes) [1]: 0
penetration of ZP [1]: completely inhibited
oocytes in which fertilization was prevented ([1]; MG132 added at the time of insemination, four trials): 100%
fertilization of zona-enclosed (zona-intact) oocytes [1]: completely prevented fertilization; also recorded: inhibited in vitro fertilization
fertilization of zona-intact oocytes after pre-incubation ([1]; oocytes or spermatozoa pre-incubated with MG132, extensive washing before insemination): had no effect
fertilization of zona-free oocytes ([2]; agent present during porcine IVF): had no effect
zona-free oocytes fertilized ([2]; in the presence or absence of MG132, most polyspermic): 92-96%
progression of meiosis and pronuclear development (rat ova): inhibited
block of bovine fertilization [3]: inhibited the fertilization only partially
average fertilization rate ([3]; two separate trials): 38.2%
gamete viability, sperm-egg binding and sperm-acrosome reaction [4, 7]: does not impair
spermatozoa with intact acrosomes on an oocyte (FIG. 1C) [4, 7]: three
number of sperm bound per egg ([4]; 10 μM MG132, 20 h p.i.): 99.3
percentage of acrosome-intact, zona-bound sperm ([4]; 10 μM MG132, 20 h p.i.): 2.01%
sperm-oocyte binding examined by light microscopy ([4]; ZP+/MG132+ zygotes used for western blotting): not affected
pronuclear development in fertilized ova (pronuclei of bovine ova; fertilized in presence of 10 μM MG132): Abnormal pronuclear development and premature chromosome condensation (PCC) was observed
import of proteasomal subunits into pronuclei (pronuclei of bovine ova; preincubation of ova with 100 μM MG132 prior to fertilization): had no effect
degradation of ZP-contributed oocyte proteins after IVF [5]: effectively prevented
block of bovine fertilization ([6]; 100 μM MG132): completely
M-II/partheno (number of ova) ([6]; 100 μM at fertilization): 40
Partheno (number of ova) ([6]; 100 μM at fertilization): 0
Fertilized (%), rate of fertilization [6, 8]: 2.8%
Fertilized (number of ova) [6, 8]: 3
Fertilized (%), rate of fertilization [6, 9]: (2.44%)
Fertilized (number of ova) [6, 9]: 1
Fertilized (%), fertilization rate [6, 10]: 97.5%
Fertilized (number of ova) [6, 10]: 40
M-II/partheno (number of ova) [6, 10]: 1
Partheno (number of ova) [6, 10]: 0
Fertilized (%), fertilization rate ([6]; 100 μM ovum preincubation 2 h, IVF in absence of MG132, listed as MG 132): (97.56%)
effect on fertilization or pronuclear development ([6]; preincubation of unfertilized ova with 100 μM MG132 for 2 h prior to IVF in absence of MG132): had no effect on fertilization or pronuclear development
anomalies in oocyte morphology ([6]; treatment during bovine IVF): Neither MG132 nor anti-MECL1 treatments were accompanied by identifiable anomalies

CC(=O)N[C@@H](CSC(=O)[C@]1([C@@H](O)C(C)C)NC(=O)[C@H](C)[C@@H]1O)C(=O)O [lactacystin]
Monospermic (%) [1]: 65%
Monospermic (number of oocytes) [1]: 13
Not fertilized (%) [1]: (25%)
Not fertilized (number of oocytes) [1]: 5
Polyspermic (%) [1]: 10%
Polyspermic (number of oocytes) [1]: 2
Monospermic (%) ([1]; listed as Lactacystin): (65%)
Polyspermic (%) ([1]; listed as Lactacystin): (10%)
fertilization at threshold concentration ([1]; 10 uM lactacystin): did not prevent fertilization
penetration of ZP [1]: completely inhibited
effect on fertilization rates ([1]; added at the time of insemination): dose-dependent effect
fertilization of zona-enclosed (zona-intact) oocytes [1]: completely prevented fertilization
block of fertilization ([1]; lactacystin at 100 μm concentration): 100%

— patent publication US20100233249A1, “CONTRACEPTIVE METHODS AND COMPOSITIONS RELATED TO PROTEASOMAL INTERFERENCE” (priority 2003, published 2010)
